Source: patent US8574578B2, “Antibodies against PDGFRα to inhibit tumor growth” (ImClone LLC, priority 2006, dated 2013)

Assays:
[1] = target: T1, PDGFRα (Homo sapiens, UniProt P16234); experiment: Ligand-induced PDGFRα tyrosine phosphorylation in PAE Rα cells; format: cell-based, porcine aortic endothelial cells stably expressing PDGFRα; set-up: expressed in transfected cells; host or cells: porcine aortic endothelial cells (PAE Rα)
Experimental: (§1) Cells were seeded in six-well Falcon tissue culture plates (250,000 cells per well) and allowed to grow overnight. Wells were then rinsed and incubated in serum-free medium. After an overnight incubation to render cells quiescent, the cells were treated with antibodies for 30 minutes at 37° C. followed by addition of PDGF-AA or PDGF-BB and incubation for an additional 10 minutes at 37° C. Cells were then detached and lysed in 200 μL lysis buffer (50 mmol/L Tris-HCl (pH 8.0), 1% Triton X-100, 150 mmol/L NaCl, 1 mmol/L EDTA, 0.1% SDS, 1 mmol/L sodium orthovanadate, and protease inhibitors (Complete Mini, Roche, Mannheim, Germany)). Cell lysates were analyzed by SDS-PAGE and Western blotting using enhanced chemiluminescence reagents and Hyperfilm (Amersham Biosciences).

[2] = test system: U118 cells; experiment: PDGF-AA-induced downstream-effector phosphorylation in U118 cells; format: cell-based, human
Experimental: as §1
(§2) Human tumor cell lines expressing PDGFRα were tested to determine the affects of the human anti-PDGFRα antibody on malignant growth in in vitro and in vivo systems. Two such tumor cell lines that express PDGFRα as determined by flow cytometry are SKLMS-1 (leiomyosarcoma) and U118 (glioblastoma). These cell lines also respond to ligand in mitogenic assays and form tumors in mice. SKLMS-1 has the potential for not only paracrine but also autocrine stimulation.

[3] = test system: glioblastoma (U118) xenograft; experiment: U118 glioblastoma s.c. xenograft growth; format: in vivo, athymic nude mice
Source text: (§3) S.c. tumor xenografts were established by injecting 10×10^6 SKLMS-1 or U118 cells mixed in Matrigel (Collaborative Research Biochemicals, Bedford, Mass.) into female athymic nude mice (Crl:NU/NU-nuBR, Charles River Laboratories, Wilmington, Mass.). Tumors were allowed to reach a mean tumor volume (π/6×longest length×perpendicular width^2) of about 400 mm^3. The mice were randomized into five groups (n=12) and treated by i.p. injection twice weekly for the duration of the study. Group 1 mice were treated with vehicle control (0.9% NaCl, USP for Irrigation, B/Braun). Groups 2 to 4 mice were treated with 6, 20, and 60 mg/kg of the instant anti-PDGFRα antibody. Group 5 mice were treated with 60 mg/kg human IgG (Sigma). Groups treated with 6, 20, or 60 mg/kg anti-PDGFRα antibody or human IgG were given 21.4, 71.4, and 214 mg/kg loading doses, respectively. The loading doses were calculated to achieve a steady state plasma concentration from the first dose (elimination half-life, 7 days) using a dosing regimen of twice weekly. Tumor volumes were evaluated twice weekly and tumor growth in the treatment groups was compared with a repeated measures ANOVA.
(§4) Resected tumors were fixed in QDL fixative at 4° C. for 24 hours. After paraffin embedding and sectioning at 4 μm, formalin-fixed sections were stained with Mayer's H&E (Richard Allen, Kalamazoo, Mich.).

[4] = test system: Akt phosphorylation in PC3-ML cells; experiment: Akt phosphorylation in PC3-ML cells (Western blot); format: cell-based, human
Experimental: Bone marrow samples from normal male donors (ages 18-45) were supplied by Cambrex (Poietics™ Donor Program). Samples were centrifuged at 1,500 rpm in order to separate the soluble and cellular phases. The supernatant was filtered using 0.8 μm and 0.22 μm filters in succession. 50 μl of bone marrow aspirate was administered to cells in 1 ml of medium (1:20 final dilution).
For experiments performed in the presence of serum, cells were cultured in DMEM supplemented with 10% FBS and 50 μg/ml gentamycin for 24 hours prior to exposure to bone marrow. For experiments in the absence of serum (starved cells), cells were washed twice with PBS, the growth medium was replaced with serum-free DMEM, and the cells were incubated for 4 hours prior to exposure to bone marrow preparations. When used, AG-1296, a specific inhibitor of PDGF receptors (Rice et al., 1999, Amer. J. Path. 155, 213-21) was added to cultures 30 min. prior to exposure to bone marrowaspirate. IMC-3G3 antibodies were administered as described at pre-treatment times as stated below.

[5] = test system: U118 cells; experiment: PDGF-stimulated [3H]thymidine incorporation in U118 cells; format: cell-based, human; conditions: at 66 nmol/L
Experimental: (§5) The ant-PDGFRα monoclonal antibody was tested for its ability to block PDGFAA-induced mitogenesis of PAE Rα cells. Cells were seeded in 96-well tissue culture plates (1×10^4 cells per well) and grown overnight in 100 μL medium per well. The wells were then rinsed with serum-free medium and cells were serum starved overnight with 75 μL serum-free medium added to each well. IgG was added (25 μL/well) and the plates were incubated for 30 minutes at 37° C. PDGF-AA or PDGF-BB (25 μL/well) was then added and plates were incubated for 18 to 20 hours at 37° C. Plates were incubated for an additional 4 hours after each well received 0.25 μCi [^3H]thymidine (25 μL/well). Antibody, PDGF, and [^3H]thymidine were all diluted in serum-free medium. Cells were then washed with PBS plus 1% bovine serum albumin and detached by treatment with trypsin (100 μL/well). […] After processing the filter, DNA incorporated radioactivity was determined on a scintillation counter (Wallac Microbeta, model 1450).
(§6) Human tumor cell lines expressing PDGFRα were tested to determine the affects of the human anti-PDGFRα antibody on malignant growth in in vitro and in vivo systems. Two such tumor cell lines that express PDGFRα as determined by flow cytometry are SKLMS-1 (leiomyosarcoma) and U118 (glioblastoma). […]

[6] = test system: SKLMS-1 cells; experiment: PDGF-stimulated [3H]thymidine incorporation in SKLMS-1 cells; format: cell-based, human
Experimental: as §5, §6

[7] = Elimination half-life used for loading dose calculation; set-up: species or system mice; conditions: mouse, in vivo
Source text: as §3

[8] = test system: SKLMS-1 cells; experiment: PDGF-AA-induced Akt and MAPK phosphorylation in SKLMS-1 cells; format: cell-based, human; conditions: PDGF-AA stimulation of SKLMS-1 cells
Experimental: as §1, §2

[9] = target: T1, PDGFRα; experiment: PDGFRα phosphotyrosine level in U118 tumors in vivo; set-up: Two such tumor cell lines that express PDGFRα as determined by flow cytometry are SKLMS-1 (leiomyosarcoma) and U118 (glioblastoma); endogenous in cells; host or cells: U118 human glioblastoma cells grown as s.c. xenograft tumors in athymic nude mice; species or system mice with U118 tumors; conditions: 214 mg/kg loading dose, 60 mg/kg 72 hours later; harvested at 168 hours; relative to human IgG control
Experimental: The level of receptor phosphotyrosine in U118 tumors was evaluated one week after treatment with anti-PDGFRα antibody or human IgGt. Mice with established U118 tumors (500 mm^3) were treated with a 214 mg/kg loading dose followed 72 hours later by a 60 mg/kg maintenance dose of antibody. Tumors were harvested from mice one week (168 hours) after the first antibody injection (at a time before tumor regression is observed on average; see FIG. 18A) and homogenized in phosphorylation assay lysis buffer (see above). The lysates were centrifuged twice at 14,000 rpm and the protein concentration for the collected supernatant was determined (Bio-Rad protein assay, Bio-Rad, Hercules, Calif.). Lysate (4 mg) from each sample was immunoprecipitation using anti-PDGFRα antibody. Immunoprecipitated human PDGFRα was then immunoblotted with either an anti-PDGFR or anti-phosphotyrosine antibody.

[10] = test system: leiomyosarcoma (SKLMS-1) xenograft; experiment: SKLMS-1 leiomyosarcoma s.c. xenograft growth; format: in vivo, athymic nude mice
Source text: as §3, §4

T1 sequence (P16234 24-1089): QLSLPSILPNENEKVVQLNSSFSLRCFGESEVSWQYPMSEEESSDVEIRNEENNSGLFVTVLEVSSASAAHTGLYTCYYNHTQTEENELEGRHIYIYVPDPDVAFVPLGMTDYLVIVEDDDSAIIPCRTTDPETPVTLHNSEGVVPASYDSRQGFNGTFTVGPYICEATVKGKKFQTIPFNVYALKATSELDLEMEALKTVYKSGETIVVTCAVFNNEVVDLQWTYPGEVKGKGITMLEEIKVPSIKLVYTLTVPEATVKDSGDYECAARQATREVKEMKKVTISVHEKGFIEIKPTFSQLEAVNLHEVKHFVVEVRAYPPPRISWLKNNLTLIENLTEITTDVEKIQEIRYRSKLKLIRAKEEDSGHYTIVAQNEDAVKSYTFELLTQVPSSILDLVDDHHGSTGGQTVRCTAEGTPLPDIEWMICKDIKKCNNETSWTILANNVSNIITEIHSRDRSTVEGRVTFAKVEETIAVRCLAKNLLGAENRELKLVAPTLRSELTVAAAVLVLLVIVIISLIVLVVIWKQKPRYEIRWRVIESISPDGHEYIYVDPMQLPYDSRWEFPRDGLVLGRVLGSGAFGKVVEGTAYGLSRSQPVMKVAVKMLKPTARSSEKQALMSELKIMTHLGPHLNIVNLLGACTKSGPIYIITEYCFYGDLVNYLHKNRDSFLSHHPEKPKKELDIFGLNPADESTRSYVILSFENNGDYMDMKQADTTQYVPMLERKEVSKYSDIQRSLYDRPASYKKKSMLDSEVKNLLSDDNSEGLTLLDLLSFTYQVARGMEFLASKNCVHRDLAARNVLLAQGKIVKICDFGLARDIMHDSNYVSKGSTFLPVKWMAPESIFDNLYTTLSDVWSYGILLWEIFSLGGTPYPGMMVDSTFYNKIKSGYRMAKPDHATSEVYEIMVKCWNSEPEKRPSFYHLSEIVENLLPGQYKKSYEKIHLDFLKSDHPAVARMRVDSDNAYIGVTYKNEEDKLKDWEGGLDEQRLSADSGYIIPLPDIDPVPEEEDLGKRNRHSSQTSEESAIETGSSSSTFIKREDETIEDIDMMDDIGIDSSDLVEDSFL

## IMC-3G3: human anti-PDGFRα monoclonal antibody; heavy chain variable region SEQ ID NO:8, light chain variable region SEQ ID NO:16
[1]
  PDGF-BB-induced receptor phosphorylation: near background levels
[1]; read-out: concentration for 50% inhibition of PDGFRα phosphorylation
  IC50: 0.25 nM
[2]
  inhibition of phosphorylation in U118 cells: effective inhibitor of phosphorylation
[3]; 6 mg/kg
  tumor regression: 4 of 12
[3]; 6 mg/kg i.p. twice weekly
  % T/C at end of study: 67%
[3]; 20 mg/kg
  tumor regression: 5 of 11
[3]; 20 mg/kg i.p. twice weekly
  % T/C at end of study: 63%
[3]; 60 mg/kg
  tumor regression: 10 of 12
[3]; 60 mg/kg i.p. twice weekly
  % T/C at end of study: 35%
[3]; 60 mg/kg, compared with saline-control group
  histologic examination of xenografts: fewer viable tumor cells
[4]; 20 μg/ml, pre-incubation 30 minutes, 30 ng/ml PDGF-BB
  effect on PDGF-BB stimulated Akt phosphorylation: neutralized
[4]; 30-minute incubation time
  inhibition of bone marrow induced Akt phosphorylation: about 40%
[4]; bone marrow induced
  inhibitory effect on Akt phosphorylation, 120-minute vs 30-minute preincubation: significantly more effective
[5]
  inhibition of PDGF-BB-stimulated mitogenic response: 40%
[6]
  PDGF-BB-stimulated mitogenic response: inhibited
[7]
  elimination half-life: 170 h
[8]
  inhibition of Akt phosphorylation: 100%
  inhibition of MAPKs phosphorylation: about 80%
[9]
  level of PDGFRα phosphotyrosine in U118 tumors: reduction in the level of PDGFRα phosphotyrosine
[10]; 6 mg/kg i.p. twice weekly
  final % TIC: 66%
[10]; 20 mg/kg i.p. twice weekly
  final % TIC: 57%
[10]; 60 mg/kg i.p. twice weekly
  final % TIC: 31%
[10]; 6, 20 and 60 mg/kg
  tumor regressions: no tumor regressions
[10]; day 25, compared with saline-control group
  histologic examination of xenografts: reduction in the amount of viable tumor cells and cellular packing
